Experimental data taken from publication PMC7782499, “Progerinin, an optimized progerin-lamin A binding inhibitor, ameliorates premature senescence phenotypes of Hutchinson-Gilford progeria syndrome” (Communications Biology, 2021).
“And” between values parts separate entries of the source, which are not always exact repeats. Equal values may be shown once.

Tested on: Lmna G609G/G609G mouse
Test: Body weight of Lmna G609G/G609G mice (ratio, week 4 = 1)
Format: in vivo
Settings: for body weight: IP injection
Description: Fig. 3 In vivo favorable effect of SLC-D011. A Gross morphology of Lmna^G609G/G609G mice (10 weeks old) was ameliorated after injection with SLC-D011. At the same age, the experimental group (D011) of mice were larger than vehicle-injected control (Con) subjects regardless of gender. B, C SLC-D011 increases body weight B and extends life span C of Lmna^G609G/G609G progeria model mouse (Con: n = 8; SLC-D011: n = 8). Compared with 14.8 weeks of average (ave) life span with maximum (max) life span of 15.5 weeks, 20 mg/kg of intraperitoneal (i.p) injection (twice a week) of SLC-D011 could extend the life span upto 19 weeks (max = 21 weeks). Lmna^G609G/G609G mice were injected with SLC-D011 from age of 5-week old, *p < 0.05. D Gross morphology of SLC-D011 injected Lmna^G609G/+ mouse. […] E SLC-D011 increases body weights of Lmna^G609G/+ mice (Con: n = 10; SLC-D011: n = 11), *p < 0.05. F Favorable effect of SLC-D011 on life span of Lmna^G609G/+ mice. Compared with vehicle-injected control group (ave = 46.7 weeks and max = 48 weeks), SLC-D011 treatment obviously extended the average life span to 63 weeks (max = 64 weeks). The injection was started from 32 weeks old, **p < 0.001. “Con” means vehicle (a solvent composed of DMSO and PBS)-injected mouse group. TEXT PRINTED IN THE PICTURE: (C) D011: Kaplan-Meier survival curve in Lmna^G609G/G609G: Ave=19; Kaplan-Meier survival curve in Lmna^G609G/G609G: Max=21 | (F) D011: Kaplan-Meier survival curve in Lmna^G609G/+: Ave=63; Kaplan-Meier survival curve in Lmna^G609G/+: Max=64 DOUBTS OF THE COPYIST ABOUT THIS PICTURE: Panels C and F: the Ave/Max labels are not printed with a group name. They are assigned to D011 (solid curve) or Con (dashed curve) only by their position beside the curves. / Panel C Ave=14.8, Max=15.5 and panel F Ave=46.7, Max=48 stand beside the dashed Con curve. They are left out because Con is the control group, not a substance. / No unit is printed with the Ave/Max values. Only the axis reads Age (weeks).
Fig. 4 Oral administration of SLC-D011 suppresses premature aging features. A Gross morphology of SLC-D011-treated (D011) mice at 8 weeks old. Body size of treated mouse was apparently larger than that of the untreated control (Con) mouse. B Oral administration of SLC-D011 increases body weights of Lmna^G609G/G609G mice. Compared with untreated control group, body weight of treated mouse was increased by ~35%, *p < 0.05. C Oral administration of SLC-D011 extends the life span of Lmna^G609G/G609G mouse. SLC-D011 in monoolein-based solution was treated by oral gavage (50 mg/kg, daily) from 5 weeks old. […] E Grip test of Lmna^G609G/+ mice at 41-week-old was performed after administration of SLC-D011 for 6 weeks. The test was repeated 10 times for each mouse (n > 4), **p < 0.001. Data are presented as mean ± SD. F Electrocardiographic analysis of Lmna^G609G/+ mice (untreated: n = 4; SLC-D011: n = 4) and Lmna^+/+ mice (n = 3) after treatment with SLC-D011 for 6 weeks (unpaired t test). Heart rate is shown as beats per minute (bpm). G Dental abnormalities in Lmna^G609G/+ mice (untreated: n = 4; SLC-D011: n = 5) and Lmna^+/+ mice (n = 4). […] Lower incisors of Lmna^G609G transgenic mice grow toward the palate because of malocclusion. Oral administration of SLC-D011 for 6 weeks alleviates dental abnormalities. H Anti-aging effects of single treatment of SLC-D011 or lonafarnib were measured in HGPS patients-derived cells (AG11513, AG03199, AG11498, and AG03198, Coriell Cell Repositories). Single treatment of SLC-D011, compared to lonafarnib, reduced the expression of progerin but induced the expression of H3K9me3 and cyclin B1 in HGPS cells more effectively. HGPS patients-derived cells were treated with SLC-D011 (500 nM) or lonafarnib (500 nM) for 3 days. I Scheme of interaction between lamin A and progerin. SLC-D011 interrupts the interaction between lamin A and progerin through direct binding to the C-terminal region of progerin. […]

CC1(C)Oc2cc3oc(=O)ccc3cc2C[C@@H]1OC/C=C/c1ccccc1 [SLC-D011]
body weight (after week 5): 1.167 and 1.25 and 1.182 and 1 | body weight (after week 7): 1.333 and 1.417 and 1.273 and 1.077 | body weight (after week 8): 1.5 and 1.25 and 1.273 and 1 and 1.462 | body weight (after week 9): 1.417 and 1.25 and 1.273 and 1 and 1.385 | body weight (after week 10): 1.333 and 1.167 and 1.182 and 1 | body weight (after week 13): 1.167 and 0.8333 and 1.091 and 0.8462 | body weight (after week 15): 1 and 0.6667 and 0.9231 | body weight (after week 16): 1 and 0.8182 and 0.8462 | body weight (after week 17): 0.8333 and 0.8182 and 0.7692 | body weight (column after week 4): 1.083 and 1 | body weight (column after week 6): 1.25 and 1.333 and 1.273 and 1.077 | body weight (column after week 11): 1.333 and 1.083 and 1.182 and 1 | body weight (column after week 12): 1.25 and 0.9167 and 1.182 and 0.9231 | body weight (column after week 14): 1.083 and 0.75 and 1.091 and 0.9231 | body weight (column after week 18): 0.8333 and 0.7692 | body weight (column after week 19): 0.75 | body weight (week 5): 1.167 and 1.091 and 1 | body weight (week 6): 1.167 and 1.333 and 1.273 and 1 | body weight (week 7): 1.333 and 1.417 and 1.273 and 1 | body weight (week 8): 1.417 and 1.273 and 1.077 and 1.385 | body weight (week 10): 1.417 and 1.167 and 1.273 and 1 and 1.385 | body weight (week 11): 1.333 and 1.083 and 1.182 and 1.077 | body weight (week 12): 1.25 and 1 and 1.182 and 0.9231 | body weight (week 13): 1.25 and 0.8333 and 1.182 and 0.9231 | body weight (week 15): 1.083 and 0.75 and 1.091 and 0.8462 | body weight (week 16): 1 and 0.8462 | body weight (week 17): 0.8333 and 0.8182 and 0.8462 | body weight (week 18): 0.8333 and 0.7692 | body weight (week 19): 0.8333 | Increase of body weight compared with untreated control (oral administration): ~ 35%
